According to US20110172296A1, “MODULATION OF TRANSFORMING GROWTH FACTOR-BETA 1 EXPRESSION” (priority 2010, published 2011):
Several values for one entry are separate records, joined by “and”; a condition that tells them apart may be missing. Equal values may be shown once. In the oligonucleotide strings, read from the 5' end, every base follows the letter of its sugar. An asterisk marks phosphorothioate; unmarked linkages are phosphodiester. Other units and linkages are bracketed, terminal groups are in braces. A string of capitals states the bases alone. e = 2'-O-(2-methoxyethyl) (MOE); [5mC] = 5-methylcytosine; d = 2'-deoxy (DNA)

What was measured:
human TGF-beta1 mRNA [1] = assay: Dose-dependent antisense inhibition of human TGF-beta1 in HuVEC cells, Lipofectamine 2000, 0.9375-30 nM (Example 3); assay type: cell-based; conditions: for percent inhibition of TGF-beta1: Lipofectamine 2000
Method: Cells were plated at a density of 5,000 cells per well and transfected using Lipofectamine™ 2000 reagent with 0.9375 nM, 1.875 nM, 3.75 nM, 7.5 nM, 15 nM, and 30 nM concentrations of antisense oligonucleotide for 4 hours, as specified in Table 3. After a recovery period of approximately 16 hours, RNA was isolated from the cells and TGF-beta1 mRNA levels were measured by quantitative real-time PCR. Human TGF-beta1 primer probe set RTS 2980 (forward sequence CTCTCCGACCTGCCACAGA, SEQ ID NO: 160; reverse sequence […], SEQ ID NO: 53; probe sequence CCCTATTCAAGACCACCCACCTTCTGGTX, SEQ ID NO: 161) was used to measure mRNA levels. TGF-beta1 mRNA levels were adjusted according to total RNA content, as measured by RIBOGREEN®. Results are presented as percent inhibition of TGF-beta1, relative to untreated control cells.

human TGF-beta1 mRNA [2] = assay: Antisense inhibition of human TGF-beta1 mRNA in HuVEC cells, single 10 nM dose, Lipofectamine 2000 (Example 2); assay type: cell-based; conditions: for % inhibition: 10 nM oligonucleotide, HuVEC, relative to untreated control cells; for inhibition of a TGF-beta1 mRNA: threshold lists of Oligo IDs, 10 nM
Procedure, shortened: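 Percent inhibition relative to untreated controls, from qRT-PCR of mRNA corrected for total RNA (RIBOGREEN). Cells were exposed 4 h to 10 nM phosphorothioate 2-13-5 MOE gapmers with Lipofectamine 2000 at 5,000 cells/well. RNA was harvested after roughly 24 h recovery.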

[3] = gapmers targeted to SEQ ID NO: 1
[4] = gapmers targeted to SEQ ID NO: 2

Row | Substance | % inhibition (human TGF-beta1 mRNA [2]; [3]) | inhibition of a TGF-beta1 mRNA (human TGF-beta1 mRNA [2]) | % inhibition (human TGF-beta1 mRNA [2]; [4]) | other results
1 | 413979 (antisense eG*eG*d[5mC]*dT*d[5mC]*d[5mC]*d[5mC]*dA*dG*d[5mC]*dG*dG*d[5mC]*dA*dA*e[5mC]*eG*eG*eA*eA) [compound 413979] | 87% | 60% and 65% and 70% and 75% and 80% and 85% | – | percent inhibition of TGF-beta1 (human TGF-beta1 mRNA [1]; 0.9375 nM): 42%; percent inhibition of TGF-beta1 (human TGF-beta1 mRNA [1]; 1.875 nM): 62%; percent inhibition of TGF-beta1 (human TGF-beta1 mRNA [1]; 3.75 nM): 80%; percent inhibition of TGF-beta1 (human TGF-beta1 mRNA [1]; 7.5 nM): 92%; percent inhibition of TGF-beta1 (human TGF-beta1 mRNA [1]; 15 nM): 95%; percent inhibition of TGF-beta1 (human TGF-beta1 mRNA [1]; 30 nM): 94%
2 | 414058 (antisense eA*eG*dG*dT*d[5mC]*dA*dA*dG*d[5mC]*d[5mC]*dA*dT*dG*dT*dG*eG*e[5mC]*eA*e[5mC]*e[5mC]) [compound 414058] | – | 60% and 65% and 70% and 75% and 80% | 81% | percent inhibition of TGF-beta1 (human TGF-beta1 mRNA [1]; 0.9375 nM): 46%; percent inhibition of TGF-beta1 (human TGF-beta1 mRNA [1]; 1.875 nM): 65%; percent inhibition of TGF-beta1 (human TGF-beta1 mRNA [1]; 3.75 nM): 78%; percent inhibition of TGF-beta1 (human TGF-beta1 mRNA [1]; 7.5 nM): 88%; percent inhibition of TGF-beta1 (human TGF-beta1 mRNA [1]; 15 nM): 87%; percent inhibition of TGF-beta1 (human TGF-beta1 mRNA [1]; 30 nM): 81%
3 | 414102 (antisense eT*eT*dT*dG*dA*dA*d[5mC]*dT*dA*d[5mC]*dA*dT*dG*dG*dG*eT*e[5mC]*e[5mC]*eT*e[5mC]) [compound 414102] | – | 60% and 65% and 70% and 75% and 80% and 85% | 86% | percent inhibition of TGF-beta1 (human TGF-beta1 mRNA [1]; 0.9375 nM): 36%; percent inhibition of TGF-beta1 (human TGF-beta1 mRNA [1]; 1.875 nM): 54%; percent inhibition of TGF-beta1 (human TGF-beta1 mRNA [1]; 3.75 nM): 70%; percent inhibition of TGF-beta1 (human TGF-beta1 mRNA [1]; 7.5 nM): 84%; percent inhibition of TGF-beta1 (human TGF-beta1 mRNA [1]; 15 nM): 87%; percent inhibition of TGF-beta1 (human TGF-beta1 mRNA [1]; 30 nM): 84%; IC50 (human TGF-beta1 mRNA [1]; Lipofectamine 2000, Example 3): 1.42 nM
4 | 414037 (antisense eG*eG*dG*dT*dG*dT*d[5mC]*d[5mC]*dT*dT*dA*dA*dA*dT*dA*e[5mC]*eA*eG*e[5mC]*e[5mC]) [compound 414037] | 89% | 60% and 65% and 70% and 75% and 80% and 85% | – | percent inhibition of TGF-beta1 (human TGF-beta1 mRNA [1]; 0.9375 nM): 56%; percent inhibition of TGF-beta1 (human TGF-beta1 mRNA [1]; 1.875 nM): 74%; percent inhibition of TGF-beta1 (human TGF-beta1 mRNA [1]; 3.75 nM): 87%; percent inhibition of TGF-beta1 (human TGF-beta1 mRNA [1]; 7.5 nM): 93%; percent inhibition of TGF-beta1 (human TGF-beta1 mRNA [1]; 15 nM): 93%; percent inhibition of TGF-beta1 (human TGF-beta1 mRNA [1]; 30 nM): 92%
5 | 413970 (antisense eG*e[5mC]*d[5mC]*dT*d[5mC]*dA*dG*dG*d[5mC]*dT*dG*d[5mC]*dT*d[5mC]*d[5mC]*eT*e[5mC]*eG*eG*e[5mC]) [compound 413970] | 87% | 60% and 65% and 70% and 75% and 80% and 85% | – | percent inhibition of TGF-beta1 (human TGF-beta1 mRNA [1]; 0.9375 nM): 48%; percent inhibition of TGF-beta1 (human TGF-beta1 mRNA [1]; 1.875 nM): 64%; percent inhibition of TGF-beta1 (human TGF-beta1 mRNA [1]; 3.75 nM): 81%; percent inhibition of TGF-beta1 (human TGF-beta1 mRNA [1]; 7.5 nM): 91%; percent inhibition of TGF-beta1 (human TGF-beta1 mRNA [1]; 15 nM): 94%; percent inhibition of TGF-beta1 (human TGF-beta1 mRNA [1]; 30 nM): 95%
6 | 414107 (antisense eT*eT*d[5mC]*dA*dA*dA*dT*dG*dT*dA*dT*d[5mC]*dT*d[5mC]*dT*eA*eA*eT*eT*eA) [compound 414107] | – | – | 7% | –
7 | 413999 (antisense eG*eG*d[5mC]*dT*d[5mC]*dA*dG*dG*dA*dG*dA*d[5mC]*dA*dG*dG*e[5mC]*e[5mC]*eG*eG*eG) [compound 413999] | 72% | 60% and 65% and 70% | – | –
8 | 413972 (antisense e[5mC]*eT*d[5mC]*dG*dT*d[5mC]*d[5mC]*d[5mC]*dT*d[5mC]*d[5mC]*dT*d[5mC]*d[5mC]*d[5mC]*eG*e[5mC]*eT*e[5mC]*e[5mC]) [compound 413972] | 61% | 60% | – | –
9 | 414098 (antisense eA*eA*dG*dG*dG*dA*dG*dG*dA*dA*dT*dA*dA*dG*dG*eT*e[5mC]*eA*eG*eA) [compound 414098] | – | 60% and 65% and 70% | 70% | –
10 | 414092 (antisense eG*eA*dG*dA*dT*dA*d[5mC]*d[5mC]*dA*dA*dT*dA*dT*dT*d[5mC]*eT*eG*e[5mC]*eT*eT) [compound 414092] | – | 60% and 65% and 70% and 75% and 80% and 85% | 86% | –
11 | 414005 (antisense e[5mC]*e[5mC]*dA*dG*dA*dA*dG*dG*dT*dG*dG*dG*dT*dG*dG*eT*e[5mC]*eT*eT*eG) [compound 414005] | 77% | 60% and 65% and 70% and 75% | – | –
12 | 414075 (antisense eG*eA*dT*dT*dA*dG*d[5mC]*d[5mC]*dA*dA*dT*d[5mC]*dA*d[5mC]*dT*e[5mC]*eA*eG*eG*eT) [compound 414075] | – | 60% and 65% and 70% and 75% | 75% | –
13 | 413986 (antisense eG*eT*d[5mC]*d[5mC]*d[5mC]*d[5mC]*dG*d[5mC]*dG*d[5mC]*d[5mC]*dT*d[5mC]*d[5mC]*dG*eG*e[5mC]*eT*e[5mC]*e[5mC]) [compound 413986] | 69% | 60% and 65% | – | –
14 | 413973 (antisense e[5mC]*eA*dA*d[5mC]*dG*dG*dA*dA*dA*dA*dG*dT*d[5mC]*dT*d[5mC]*eA*eA*eA*eA*eG) [compound 413973] | 25% | – | – | –
15 | 414112 (antisense eG*eG*d[5mC]*dA*dG*d[5mC]*dA*dT*d[5mC]*dA*d[5mC]*d[5mC]*dT*dG*dG*eG*eA*eA*e[5mC]*eT) [compound 414112] | – | – | 57% | –
16 | 413984 (antisense e[5mC]*e[5mC]*dG*d[5mC]*dG*d[5mC]*d[5mC]*dT*d[5mC]*d[5mC]*dG*dG*d[5mC]*dT*d[5mC]*e[5mC]*e[5mC]*eA*eG*e[5mC]) [compound 413984] | 71% | 60% and 65% and 70% | – | –
17 | 414057 (antisense eT*eA*d[5mC]*dA*d[5mC]*dT*dG*dG*dT*d[5mC]*dA*d[5mC]*dT*d[5mC]*dA*eA*eT*e[5mC]*eA*eT) [compound 414057] | – | – | 58% | –
18 | 414117 (antisense eA*eG*dT*dG*d[5mC]*dA*dA*dT*dA*d[5mC]*dG*dG*dT*dA*dT*eT*eG*e[5mC]*eA*eG) [compound 414117] | – | 60% and 65% and 70% and 75% and 80% | 81% | –
19 | 414047 (antisense e[5mC]*e[5mC]*dT*dG*d[5mC]*d[5mC]*d[5mC]*d[5mC]*dT*dT*dG*dG*dT*dG*dG*eA*eA*eG*e[5mC]*eG) [compound 414047] | – | – | 41% | –
20 | 414063 (antisense eA*eA*dG*dT*d[5mC]*dG*dA*d[5mC]*dT*dA*dA*dG*dG*d[5mC]*dT*eG*eG*e[5mC]*eA*e[5mC]) [compound 414063] | – | 60% and 65% and 70% and 75% and 80% | 80% | –
21 | 414020 (antisense eG*eG*dA*dG*dG*d[5mC]*d[5mC]*d[5mC]*d[5mC]*dG*d[5mC]*d[5mC]*d[5mC]*d[5mC]*dT*eG*e[5mC]*eA*eG*eG) [compound 414020] | 0% | – | – | –
22 | 414062 (antisense e[5mC]*e[5mC]*d[5mC]*d[5mC]*dT*dA*dA*dA*dA*dT*dG*d[5mC]*dA*dG*dA*eG*eT*eA*eA*eG) [compound 414062] | – | 60% and 65% and 70% | 72% | –
23 | 414087 (antisense eG*eT*dG*dA*d[5mC]*d[5mC]*dT*dT*d[5mC]*d[5mC]*dA*dA*d[5mC]*dT*dT*eT*eG*eA*eA*eT) [compound 414087] | – | 60% and 65% and 70% and 75% | 77% | –
24 | 414043 (antisense e[5mC]*e[5mC]*dT*dT*dG*dA*dT*dG*d[5mC]*d[5mC]*dG*dG*dG*d[5mC]*dA*eA*eA*eG*eG*eA) [compound 414043] | 64% | 60% | – | –
25 | 414003 (antisense eA*eA*dG*dG*dT*dG*dG*dG*dT*dG*dG*dT*d[5mC]*dT*dT*eG*eA*eA*eT*eA) [compound 414003] | 67% | 60% and 65% | – | –
26 | 414060 (antisense eA*e[5mC]*dA*dG*d[5mC]*dA*dA*dT*dA*dA*d[5mC]*dA*dT*dT*dA*eA*eG*e[5mC]*eT*e[5mC]) [compound 414060] | – | – | 31% | –
27 | 413988 (antisense eA*eA*dG*dT*d[5mC]*d[5mC]*dT*dG*d[5mC]*d[5mC]*dT*d[5mC]*d[5mC]*dT*d[5mC]*eG*e[5mC]*eG*eG*eG) [compound 413988] | 63% | 60% | – | –
28 | 414085 (antisense e[5mC]*eT*dA*dA*dA*dG*dG*dA*dG*dA*d[5mC]*dA*dG*dA*dT*eG*e[5mC]*eT*e[5mC]*eA) [compound 414085] | – | 60% and 65% | 66% | –
29 | 414061 (antisense eT*eG*dT*dG*dT*dG*dA*d[5mC]*d[5mC]*dA*dT*dG*dG*dG*d[5mC]*eA*eG*eT*eT*eA) [compound 414061] | – | 60% and 65% | 69% | –
30 | 414091 (antisense eG*eG*dT*dA*dT*d[5mC]*d[5mC]*dA*d[5mC]*dA*dA*dT*dT*dG*dG*e[5mC]*e[5mC]*eA*eG*eT) [compound 414091] | – | 60% | 64% | –
